Read-outs that look alike come from different tables or passages of the source.
Experiments:
[1] = system: PC-3 cells; test: MTT cell growth inhibition, PC-3; settings: for Cellular IC50 (μM) PC3: Table 8
Description: (§1) MDA PCa 2b was seeded at the same density in medium BRFF-HPC1 (Athena Enzyme Systems, Baltimore, Md., USA) supplemented with 20% FBS. After overnight incubation, the medium was changed to a fresh medium containing different concentrations of test compounds diluted from stock DMSO solution. The final concentration of DMSO is 0.5%. After 72 h of incubation with test compounds, 20 μL of 3-(4,5-dimethyl thiazol-2-yl)-2,5-diphenyltetrazolium bromide (MTT) solution (5 mg/mL in PBS) were added to each well and incubated further for 2 h. Next, the supernatant was aspirated and the MTT formazan formed by metabolically viable cells was dissolved in 100 μL of isopropanol. The plates were mixed for 30 min, and the absorbance was measured at 600 nm on a plate reader (FLUOstar OPTIMA, BMG LabTech). All samples were in triplicate. The IC50 values were determined from dose-response curves by nonlinear regression using PRISM v5.00 (GraphPad Software Inc, La Jolla, Calif., USA).
(§2) The in vitro cytotoxicity of 1-20 were evaluated by MTT assays in a panel of prostate cancer cell lines, including LNCaP, MDA PCa 2b, 22Rv1, C4-2B and PC-3.

[2] = system: LNCaP cells; test: MTT cell growth inhibition, LNCaP;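 note: MTT formazan absorbance at 600 nm read after 72 h of compound exposure, IC50 fitted by nonlinear regression of dose-response curves, samples run in triplicate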
[3] = system: 22Rv1 cells; test: MTT cell growth inhibition, 22Rv1; settings: MTT
Description: as §1, §2

[4] = system: C4-2B cells; test: MTT cell growth inhibition, C4-2B;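 note: cells treated with a dilution series for 72 h, then MTT added and absorbance read at 600 nm, IC50 fitted from dose-response curves by nonlinear regression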
[5] = read-out: IC50 (μM) PC-3, Table 1, 72 h, maximum tested concentration 50 μM
[6] = read-out: IC50 (μM) LNCaP, Table 1, 72 h
[7] = read-out: IC50 (μM) 22Rv1, Table 1, 72 h
[8] = read-out: IC50 (μM) C4-2B, Table 1, 72 h
[9] = read-out: Cellular IC50 (μM) PC-3, Table 2, 72 h, max tested 50 μM (β-ionone 150 μM)
[10] = read-out: Cellular IC50 (μM) LNCaP, Table 2, 72 h
[11] = read-out: Cellular IC50 (μM) 22Rv1, Table 2, 72 h
[12] = read-out: Cellular IC50 (μM) C4-2B, Table 2, 72 h
[13] = read-out: Cellular IC50 (μM) PC3, Table 8
[14] = read-out: Cellular IC50 (μM) LNCaP, Table 8
[15] = read-out: Cellular IC50 (μM) 22Rv1, Table 8
[16] = read-out: Cellular IC50 (μM) C4-2B, Table 8

`COc1cc(/C=C/C(O)=C/C(=O)/C=C/C2=C(C)CCCC2(C)C)ccc1O` [Compound 1] was tested, and the IC50 [1, 5] was 15.8 µM, the IC50 [2, 6] was 20.6 µM and the IC50 [3, 7] was 10.6 µM. It also gave an IC50 [4, 8] of 44.3 µM.
`COc1ccc(/C=C/C(O)=C/C(=O)/C=C/C2=C(C)CCCC2(C)C)cc1O` [Compound 2] showed an IC50 [1, 5] of 38.3 µM, an IC50 [2, 6] of 25.9 µM and an IC50 [4, 8] of 23.1 µM.
In the case of `COc1ccc(/C=C/C(O)=C/C(=O)/C=C/C2=C(C)CCCC2(C)C)cc1OC` [Compound 3], the IC50 [1, 5] is reported as 47.9 µM, the IC50 [2, 6] is reported as 26.4 µM and the IC50 [4, 8] is reported as 30.6 µM.
With `CCOc1ccc(/C=C/C(O)=C/C(=O)/C=C/C2=C(C)CCCC2(C)C)cc1OCC` [Compound 4] the IC50 [1, 5] was 53.3 µM, the IC50 [2, 6] was 30 µM and the IC50 [4, 8] was 22.6 µM.
In the case of `CC1=C(/C=C/C(=O)/C=C(O)/C=C/c2ccc(O)cc2)C(C)(C)CCC1` [Compound 5], the IC50 [1, 5] is reported as 50.6 µM, the IC50 [2, 6] is reported as 18.6 µM and the IC50 [3, 7] is reported as 12.6 µM. The IC50 [4, 8] was 5.7 µM.
Compound `COc1cc(/C=C/C(O)=C/C(=O)/C=C/C2=C(C)CCCC2(C)C)cc(OC)c1O` [Compound 6] has an IC50 [1, 5] of 26.7 µM, an IC50 [2, 6] of 6.2 µM and an IC50 [3, 7] of 12.2 µM. The IC50 [4, 8] was 9.8 µM.
Work on `COc1cc(/C=C/C(O)=C/C(=O)/C=C/C2=C(C)CCCC2(C)C)cc(OC)c1OC` [Compound 7] yielded an IC50 [1, 5] of over 50 µM, an IC50 [2, 6] of 21.4 µM and an IC50 [3, 7] of 17.1 µM. The IC50 [4, 8] was 11.9 µM.
With `COc1ccc(/C=C/C(O)=C/C(=O)/C=C/C2=C(C)CCCC2(C)C)cn1` [Compound 8] the IC50 [1, 5] was 52.2 µM and the IC50 [2, 6] was 25.1 µM.
`COc1ccc(C=CC(=O)C(=Cc2ccc(OC)c(O)c2)C(=O)C=CC2=C(C)CCCC2(C)C)cc1O` [Compound 11] was tested, and the IC50 [1, 9] was 29.2 µM, the IC50 [2, 10] was 7.3 µM and the IC50 [3, 11] was 5.2 µM. The IC50 [4, 12] was 4.5 µM.
`COc1ccc(C=CC(=O)C(=Cc2ccc(OC)c(OC)c2)C(=O)C=CC2=C(C)CCCC2(C)C)cc1OC` [Compound 12] was tested, and the IC50 [1, 9] was 34.3 µM, the IC50 [2, 10] was 15.9 µM and the IC50 [3, 11] was 49.7 µM. For the same compound, the IC50 [4, 12] was 54.4 µM.
`COc1cc(C=CC(=O)C(=Cc2cc(OC)c(OC)c(OC)c2)C(=O)C=CC2=C(C)CCCC2(C)C)cc(OC)c1OC` [Compound 16] was tested, and the IC50 [1, 9] was 5.9 µM, the IC50 [2, 10] was 3.4 µM and the IC50 [3, 11] was 1.5 µM. The IC50 [4, 12] was 2.2 µM.
For `COc1ccc(/C=C/C(=O)/C(=C/c2ccc(OC)nc2)C(=O)/C=C/C2=C(C)CCCC2(C)C)cn1` [Compound 17], the IC50 [1, 9] was 31 µM, the IC50 [2, 10] was 15.7 µM and the IC50 [3, 11] was 9.9 µM. It also gave an IC50 [4, 12] of 12.2 µM.
With `CCn1c2ccccc2c2cc(/C=C(\C(=O)/C=C/C3=C(C)CCCC3(C)C)C(=O)/C=C/c3ccc4c(c3)c3ccccc3n4CC)ccc21` [Compound 18] the “Cellular IC50 (μM) PC-3” value ([1]; Table 2, 72 h, max tested 50 μM (β-ionone 150 μM)) was “Inactive^c”, the IC50 [2, 10] was 11.8 µM and the IC50 [3, 11] was 31.6 µM. The IC50 [4, 12] was 28.5 µM.
`COc1cc(/C=C/C(=O)/C(=C/c2ccc3ccccc3n2)C(=O)/C=C/C2=C(C)CCCC2(C)C)ccc1O` [Compound 20] gave an IC50 [1, 9] of 15.2 µM, an IC50 [2, 10] of 8.5 µM and an IC50 [3, 11] of 5.1 µM. The IC50 [4, 12] was 5.3 µM.
Compound `CC1=C(/C=C/C(=O)/C=C/c2cccc(OC(F)(F)F)c2)C(C)(C)CCC1O` (stereo not shown) [Compound B46] has an IC50 [1, 13] of 1.7 µM and an IC50 [2, 14] of 1.4 µM.
In the case of `CC1=C(/C=C/C(=O)/C=C/c2cccc(OC(F)(F)C(F)F)c2)C(C)(C)CCC1O` (stereo not shown) [Compound B47], the IC50 [1, 13] is reported as 4.6 µM, the IC50 [2, 14] is reported as 1.6 µM and the IC50 [3, 15] is reported as 1.8 µM.
For `CC1=C(/C=C/C(=O)/C=C/c2cccc(Oc3ccccc3)c2)C(C)(C)CCC1O` (stereo not shown) [Compound B48], the IC50 [1, 13] was 2 µM and the IC50 [2, 14] was 2.4 µM.
`CC1=C(/C=C/C(=O)/C=C/c2cccc(OCc3ccccc3)c2)C(C)(C)CCC1O` (stereo not shown) [Compound B49] showed an IC50 [1, 13] of 8 µM, an IC50 [2, 14] of 5 µM and an IC50 [3, 15] of 5.4 µM. The IC50 [4, 16] was 2.6 µM.
Compound `CC1=C(/C=C/C(=O)/C=C/c2ccc(C)cc2)C(C)(C)CCC1O` (stereo not shown) [Compound B51] has an IC50 [1, 13] of 18.6 µM, an IC50 [2, 14] of 11.5 µM and an IC50 [3, 15] of 12.3 µM. It also gave an IC50 [4, 16] of 5.9 µM.
`CC1=C(/C=C/C(=O)/C=C/c2ccc(O)cc2)C(C)(C)CCC1O` (stereo not shown) [Compound B52] was tested, and the “Cellular IC50 (μM) PC3” value [1] was “Int”, the IC50 [2, 14] was 8.9 µM and the IC50 [3, 15] was 10.6 µM.
For `COc1ccc(/C=C/C(=O)/C=C/C2=C(C)C(O)CCC2(C)C)cc1` (stereo not shown) [Compound B53], the “Cellular IC50 (μM) PC3” value [1] was “Int”, the IC50 [2, 14] was 13.3 µM and the IC50 [3, 15] was 20.3 µM. The IC50 [4, 16] was 10.3 µM.
`CC1=C(/C=C/C(=O)/C=C/c2ccc(OC(F)(F)F)cc2)C(C)(C)CCC1O` (stereo not shown) [Compound B54] was tested, and the IC50 [1, 13] was 6.6 µM and the IC50 [2, 14] was 1.3 µM.
`CC1=C(/C=C/C(=O)/C=C/c2ccc(OC(F)(F)C(F)F)cc2)C(C)(C)CCC1O` (stereo not shown) [Compound B55] was tested, and the IC50 [1, 13] was 12.3 µM, the IC50 [2, 14] was 5.4 µM and the IC50 [3, 15] was 7.7 µM. The IC50 [4, 16] was 4.6 µM.

Reference: patent US8470889B2 (TRT Pharma Inc., priority 2008, dated 2013)
